Measurements published in ChEMBL document CHEMBL5620396, “Phenotypic screening identifies a trisubstituted imidazo[1,2-a]pyridine series that induces differentiation in multiple AML cell lines” (Eur J Med Chem, 2023).
≈ marks a conversion by molar mass, not a printed value. Calls of active or inactive are those of the source. The calls are words filed in the database; no cut-off is given here.

Columns and labels:
[1] = Semi-thermodynamic aqueous solubility of compound; type: physicochemical; conditions: buffer; read-out: Therm_solubility
[2] = Metabolic stability in mouse S9 fraction assessed as compound remaining measured after 45 mins in absence of NADPH and […]; type: ADME, subcellular; conditions: read-out: Stability
OCI-AML-3 [3] = experiment: Induction of differentiation in human OCI-AML-3 cells assessed as reduction in cell number at 10 nM incubated for 4 days by acridine orange/DAPI staining based analysis; type: functional; conditions: time 4.0 day
ME-1 [4] = experiment: Induction of differentiation in human ME-1 cells assessed as reduction in cell number at 10 nM incubated for 4 days by acridine orange/DAPI staining based analysis; type: functional; conditions: time 4.0 day
KG-1 [5] = experiment: Induction of differentiation in human KG-1 cells assessed as reduction in cell number at 10 nM incubated for 4 days by acridine orange/DAPI staining based analysis; type: functional; conditions: time 4.0 day
HL-60 [6] = experiment: Induction of differentiation in human HL-60 cells assessed as reduction in cell number at 10 nM incubated for 4 days by acridine orange/DAPI staining based analysis; type: functional; conditions: time 4.0 day
THP-1 [7] = experiment: Induction of differentiation in human THP-1 cells assessed as reduction in cell number at 10 nM incubated for 4 days by acridine orange/DAPI staining based analysis; type: functional; conditions: time 4.0 day
Kasumi 1 [8] = experiment: Induction of differentiation in human Kasumi 1 cells assessed as reduction in cell number at 10 nM incubated for 4 days by acridine orange/DAPI staining based analysis; type: functional; conditions: time 4.0 day
OCI-AML-3 [9] = experiment: Induction of differentiation in human OCI-AML-3 cells assessed as reduction in cell number at 10 uM incubated for 4 days by acridine orange/DAPI staining based analysis; type: functional; conditions: time 4.0 day
ME-1 [10] = experiment: Induction of differentiation in human ME-1 cells assessed as reduction in cell number at 10 uM incubated for 4 days by acridine orange/DAPI staining based analysis; type: functional; conditions: time 4.0 day
HL-60 [11] = experiment: Induction of differentiation in human HL-60 cells assessed as upregulation of CD11b response at 1 uM incubated for 4 days by flow cytometry analysis relative to control; type: functional; conditions: time 4 day
HL-60 [12] = experiment: Induction of differentiation in human HL-60 cells assessed as reduction in cell number at 10 uM incubated for 4 days by acridine orange/DAPI staining based analysis; type: functional; conditions: time 4.0 day
KG-1 [13] = experiment: Induction of differentiation in human KG-1 cells assessed as reduction in cell number at 10 uM incubated for 4 days by acridine orange/DAPI staining based analysis; type: functional; conditions: time 4.0 day
HL-60 [14] = experiment: Induction of differentiation in human HL-60 cells assessed as upregulation of CD11b response at 10 uM incubated for 4 days by flow cytometry analysis relative to control; type: functional; conditions: time 4 day
HL-60 [15] = experiment: Induction of morphological changes in human HL-60 cells assessed as variation in cell size at 10 uM; type: functional, cell-based
HL-60 [16] = experiment: Induction of morphological changes in human HL-60 cells assessed as appearance of granules and vacuoles at 10 uM; type: functional, cell-based
Kasumi 1 [17] = experiment: Induction of differentiation in human Kasumi 1 cells assessed as reduction in cell number at 10 uM incubated for 4 days by acridine orange/DAPI staining based analysis; type: functional; conditions: time 4.0 day
HL-60 [18] = experiment: Induction of morphological changes in human HL-60 cells assessed as variations in nuclear segmentation at 10 uM; type: functional, cell-based
HL-60 [19] = experiment: Induction of morphological changes in human HL-60 cells assessed as appearance of wider and lighter cytoplasm at 10 uM; type: functional, cell-based
THP-1 [20] = experiment: Induction of differentiation in human THP-1 cells assessed as reduction in cell number at 10 uM incubated for 4 days by acridine orange/DAPI staining based analysis; type: functional; conditions: time 4.0 day

SMILES: COc1ccc(-c2cnc3c(NC=O)nc(-c4ccccc4OC)cn23)cc1OC
- solubility thermodynamic [1]: 1 µM (≈ 0.404 µg/mL)
- remaining at 0.75 h [2]: 0.5%

SMILES: COc1ccccc1-c1cc(NC=O)c2ncc(-c3ccc4nc(C)oc4c3)n2c1
- solubility thermodynamic [1]: 2 µM (≈ 0.797 µg/mL)

SMILES: COc1ccc(-c2cnc3c(C(N)=O)cc(-c4ccccc4OC)cn23)cc1OC
- solubility thermodynamic [1]: 12 µM (≈ 4.84 µg/mL)

SMILES: COc1ccc(-c2cnc3ncc(-c4ccccc4OC)cn23)cc1OC
- solubility thermodynamic [1]: 1 µM (≈ 0.361 µg/mL)
- remaining at 0.75 h [2]: 70%

SMILES: CNc1nc(-c2ccccc2OC)cn2c(-c3ccc(OC)c(OC)c3)cnc12
- solubility thermodynamic [1]: 39 µM (≈ 15.2 µg/mL)

SMILES: Cc1cc(C#N)ccc1-c1cc(NS(C)(=O)=O)c2ncc(-c3ccc4c(cnn4C)c3)n2c1
- solubility thermodynamic [1]: 26 µM (≈ 11.9 µg/mL)

SMILES: COc1ccc(-c2cnc3c(NC(C)=O)cc(-c4ccccc4OC)cn23)cc1OC
- solubility thermodynamic [1]: 39 µM (≈ 16.3 µg/mL)
- remaining at 0.75 h [2]: 1%

SMILES: COc1ccccc1-c1cc(NS(C)(=O)=O)c2ncc(-c3ccc4c(cnn4C)c3)n2c1
- solubility thermodynamic [1]: 18 µM (≈ 8.06 µg/mL)

SMILES: COc1cc(F)ccc1-c1cc(NS(C)(=O)=O)c2ncc(-c3ccc4c(cnn4C)c3)n2c1
- solubility thermodynamic [1]: 12 µM (≈ 5.59 µg/mL)

SMILES: CNc1cc(-c2ccccc2OC)cn2c(-c3ccc(OC)c(OC)c3)cnc12
- solubility thermodynamic [1]: 8 µM (≈ 3.12 µg/mL)
- remaining at 0.75 h [2]: 81%

SMILES: COc1cc(C#N)ccc1-c1cc(NS(C)(=O)=O)c2ncc(-c3ccc4c(cnn4C)c3)n2c1
- solubility thermodynamic [1]: 2 µM (≈ 0.945 µg/mL)

SMILES: COc1ccc(-c2cnc3c(N4CC5(COC5)C4)nc(-c4ccccc4OC)cn23)cc1OC
- solubility thermodynamic [1]: 26 µM (≈ 11.9 µg/mL)

SMILES: COc1ccccc1-c1cc(NC=O)c2ncc(-c3ccc4nn(C)c(C)c4c3)n2c1
- solubility thermodynamic [1]: 4 µM (≈ 1.65 µg/mL)

SMILES: COc1ccccc1-c1cc(NC=O)c2ncc(-c3ccc4c(C)nn(C)c4c3)n2c1
- solubility thermodynamic [1]: 2 µM (≈ 0.823 µg/mL)

SMILES: COc1ccc(-c2cnc3c(NS(C)(=O)=O)cc(-c4ccccc4OC)cn23)cc1OC
- solubility thermodynamic [1]: 43 µM (≈ 19.5 µg/mL)

SMILES: COc1ccccc1-c1cc(NC=O)c2nccn2c1
- solubility thermodynamic [1]: > 200 µM

SMILES: COc1ccccc1-c1cc(NC=O)c2ncc(-c3ccc4c(cnn4C)c3)n2c1
- solubility thermodynamic [1]: 2 µM (≈ 0.795 µg/mL)

SMILES: CC1=C(c2cc(NS(C)(=O)=O)c3ncc(-c4ccc5c(cnn5C)c4)n3c2)CCCC1
- solubility thermodynamic [1]: 26 µM (≈ 11.3 µg/mL)

SMILES: COc1ccc(-c2cnc3ccc(-c4ccccc4OC)cn23)cc1OC
- solubility thermodynamic [1]: 156 µM (≈ 56.2 µg/mL)

SMILES: CCCCCCCCCCCCCC(=O)O[C@@H]1[C@@H](C)[C@@]2(O)[C@@H](C=C(CO)C[C@]3(O)C(=O)C(C)=C[C@@H]23)[C@@H]2C(C)(C)[C@]12OC(C)=O
- Activity (OCI-AML-3 [3]): Active
- Activity (ME-1 [4]): Active
- Activity (KG-1 [5]): Active
- Activity (HL-60 [6]): Active
- Activity (THP-1 [7]): Active
- Activity (Kasumi 1 [8]): Active

SMILES: COc1ccc(-c2cnc3c(NC=O)cc(-c4ccccc4OC)cn23)cc1OC
- Activity (OCI-AML-3 [9]): Active
- Activity (ME-1 [10]): Active
- Activity (HL-60 [11]): 14%
- Activity (HL-60 [12]): Active
- Activity (KG-1 [13]): Active
- Activity (HL-60 [14]): <=78%
- Activity (HL-60 [15]): Active
- Activity (HL-60 [16]): Active
- Activity (Kasumi 1 [17]): Active
- solubility thermodynamic [1]: 37 µM (≈ 14.9 µg/mL)
- Activity (HL-60 [18]): Active
- remaining at 0.75 h [2]: 28%
- Activity (HL-60 [19]): Active
- Activity (THP-1 [20]): Active

SMILES: COc1ccc(-n2cnc3cnc(-c4ccccc4OC)cc32)cc1OC
- solubility thermodynamic [1]: 200 µM (≈ 72.3 µg/mL)

SMILES: COc1ccccc1-c1cc(NC=O)c2ncc(-c3ccc4c(c3)c(C)nn4C)n2c1
- solubility thermodynamic [1]: 6 µM (≈ 2.47 µg/mL)

SMILES: Cn1ncc2cc(-c3cnc4c(NS(C)(=O)=O)cc(-c5ccc(F)cc5Cl)cn34)ccc21
- solubility thermodynamic [1]: 9 µM (≈ 4.23 µg/mL)

SMILES: COc1ccc(-c2cnc3c(N(C)C=O)cc(-c4ccccc4OC)cn23)cc1OC
- solubility thermodynamic [1]: 1 µM (≈ 0.417 µg/mL)
- remaining at 0.75 h [2]: 46%

SMILES: COc1ccc(-c2cnc3c(N)cc(-c4ccccc4OC)cn23)cc1OC
- solubility thermodynamic [1]: 38 µM (≈ 14.3 µg/mL)

SMILES: Cc1ccccc1-c1cc(NS(C)(=O)=O)c2ncc(-c3ccc4c(cnn4C)c3)n2c1
- solubility thermodynamic [1]: 13 µM (≈ 5.61 µg/mL)

SMILES: COc1ccccc1-c1cc(NC=O)c2ncc(-c3ccccc3)n2c1
- solubility thermodynamic [1]: 2 µM (≈ 0.687 µg/mL)

SMILES: COc1ccc(-c2cnc3c(N4CCOCC4)nc(-c4ccccc4OC)cn23)cc1OC
- solubility thermodynamic [1]: 4 µM (≈ 1.79 µg/mL)

SMILES: COc1ccc(-c2cnc3c(NC=O)cc(-c4ccccc4OC)cn23)cc1C#N
- solubility thermodynamic [1]: 2 µM (≈ 0.797 µg/mL)
